Among the data in PMC8838521, “Antimicrobial, Cytotoxic and Mutagenic Activity of Gemini QAS Derivatives of 1,4:3,6-Dianhydro-L-iditol” (Molecules, 2022) are MIC values, retold here.

Values joined by “and” are separate entries in the source; they are usually repeats but may differ in a detail not shown here. Equal entries are not always repeated. Where two headings read alike, the source gives them in different places.

Type in all cases: cell-based
The test system of experiment [1] is Staphylococcus aureus ATCC 25923. The experiment in a line: Antimicrobial activity, microdilution MIC, S. aureus reference strain. Particulars: Staphylococcus aureus, ATCC25923, 24 h, MIC90, 24 h, MHB2; read-out: MIC S. aureus ATCC 25923. Here is the method:
(§1) The antimicrobial potential of the tested agents was evaluated against two reference strains of bacteria: Staphylococcus aureus ATCC 25923 and Escherichia coli K12, two reference strains of pathogenic yeasts, Candida albicans ATCC10231 and Candida glabrata DSMZ11226, as well as 20 strains of clinical isolates of S. aureus collected from patients with skin and soft tissue infections (n = 8) and strains derived from subclinical bovine mastitis milk samples (n = 12). Four of these strains, two isolated from human infections and two isolated from bovine mastitis, were classified as MRSA (Methicillin-resistant Staphylococcus aureus). All of them were mecA positive and their methicillin resistance was confirmed with the disc diffusion assay. The remaining 16 strains were MSSA (Methicillin-sensitive Staphylococcus aureus). The assays were performed using a serial, two-fold dilution method in 96-well microtiter plates under conditions recommended by the Clinical and Laboratory Standards Institute (CLSI, Pittsburgh, PA, USA). The aim of this procedure was the determination of the MIC parameter (Minimum Inhibitory Concentration)—the minimum concentration of a tested agent capable to inhibit the growth of a specified strain of microorganism. The agents were solubilized in deionized, sterile water to a final concentration of […]. Subsequently, solutions were mixed (1:1 (v/v)) with 2 × concentrated liquid medium, Mueller-Hinton Broth 2—cation adjusted (MHB2) for evaluation of antibacterial activity and RPMI in the case of evaluation of the antifungal activity. […] Subsequently, the solutions were mixed with MHB2 or RPMI medium to get the final concentration of 8.192 mg/mL (8192 µg/mL). In the next step, the serial, two-fold dilutions of the tested agents (over the range of concentrations from 8192 to 8 µg/mL for reference strains of bacteria and yeasts and from 512 to 1.0 µg/mL for clinical isolates of S. aureus) were prepared in 96-well microtitration plates in the final volume of 100 μL of the appropriate medium.
(§2) The pure bacterial cultures of (both the reference and clinical strains) were grown on the Mueller-Hinton Agar (MHA) for 18–24 h at 37 °C. A small amount of the biomass of the culture of each strain of microorganisms was suspended in the sterile PBS (phosphate buffered saline, pH 7.4 at 25 °C, purchased from Sigma) solution to get an optical density OD600 = 0.13 (equal to the cells concentration approximately 1 × 10^8 CFU/mL). The obtained suspensions of the cells were next diluted 1:100 (v/v) in the MHB2 medium. One hundred µL of the cells’ suspension was finally loaded into the wells of plates prepared in advance, which contained 100 µL of two-fold dilutions of the tested agents (the final concentration of the bacterial cells in all wells was approximately 5 × 10^5 CFU/mL).
(§3) The pure cultures of yeast strains were grown on the Sabouraud Dextrose Agar (SDA) for 18–24 h at 37 °C. Suspensions of the microorganisms were prepared by taking one loop of pure culture into sterile water and adjusting optical density to 0.1 at 660 nm and further 50-fold dilution in RPMI 1640 medium resulting in cells concentration of approximate 2 × 10^4 CFU/mL. One hundred μL of that suspension was inoculated to the wells of the microtitration plate containing appropriate dilutions of the agents. The positive growth control of each strain (both bacteria and yeasts) was performed in the wells without the tested substances. The negative control containing only the media was included in each assay. Microtiter plates were incubated at 37 °C for 24 h. Following the incubation period, determination of the MIC values of the tested agents was carried out by measuring the absorbance at 531 nm using a Victor^3 microplate reader (Perkin Elmer, Inc., Waltham, MA, USA). The lowest concentration of the agent causing inhibition of growth equal to or higher than 90% (MIC90) of growth control was taken as the MIC value. Each test was repeated three times. […]
In general terms: Broth dilution looks for growth in wells or tubes with falling amounts of substance.

Experiment [2] concerns Escherichia coli K12. The experiment in a line: Antimicrobial activity, microdilution MIC, E. coli. Particulars: Escherichia coli, K12, 24 h, MIC90, 24 h, MHB2; read-out: MIC E. coli K12. Here is the method:
as §1, §2, §3

Experiment [3] concerns S. aureus clinical isolates. The experiment in a line: Antistaphylococcal activity, microdilution MIC, clinical isolates. Conditions: Staphylococcus aureus. Here is the method: as §1, §2, §3
Setting [4] is: 20 clinical isolates, typical value, read-out: MIC against S. aureus clinical isolates, in general.
The mark [5] stands for this setting: isolate 1, human infection, MSSA, read-out: MIC S. aureus isolate 1.
Where [6] appears, read: isolate 2, human infection, MSSA, read-out: MIC S. aureus isolate 2.
[7] abbreviates: isolate 3, human infection, MSSA, read-out: MIC S. aureus isolate 3.
The mark [8] stands for this setting: isolate 4, human infection, MSSA, read-out: MIC S. aureus isolate 4.
Setting [9] is: isolate 5, human infection, MSSA, read-out: MIC S. aureus isolate 5.
The mark [10] stands for this setting: isolate 6, human infection, MSSA, read-out: MIC S. aureus isolate 6.
Setting [11] is: isolate 7, human infection, MRSA, read-out: MIC S. aureus isolate 7.
Where [12] appears, read: isolate 8, human infection, MRSA, read-out: MIC S. aureus isolate 8.
The mark [13] stands for this setting: isolate 9, bovine mastitis, MSSA, read-out: MIC S. aureus isolate 9.
Setting [14] is: isolate 10, bovine mastitis, MSSA, read-out: MIC S. aureus isolate 10.
Where [15] appears, read: isolate 11, bovine mastitis, MSSA, read-out: MIC S. aureus isolate 11.
Setting [16] is: isolate 12, bovine mastitis, MSSA, read-out: MIC S. aureus isolate 12.
[17] abbreviates: isolate 13, bovine mastitis, MSSA, read-out: MIC S. aureus isolate 13.
Where [18] appears, read: isolate 14, bovine mastitis, MSSA, read-out: MIC S. aureus isolate 14.
The mark [19] stands for this setting: isolate 15, bovine mastitis, MSSA, read-out: MIC S. aureus isolate 15.
Where [20] appears, read: isolate 16, bovine mastitis, MSSA, read-out: MIC S. aureus isolate 16.
Where [21] appears, read: isolate 17, bovine mastitis, MSSA, read-out: MIC S. aureus isolate 17.
Setting [22] is: isolate 18, bovine mastitis, MSSA, read-out: MIC S. aureus isolate 18.
[23] abbreviates: isolate 19, bovine mastitis, MRSA, read-out: MIC S. aureus isolate 19.
[24] abbreviates: isolate 20, bovine mastitis, MRSA, read-out: MIC S. aureus isolate 20.

A word on the MIC: it is the smallest concentration in the dilution series that meets the test's criterion for growth inhibition. `CCCCCCCC[N+](C)(C)C1COC2C1OCC2[N+](C)(C)CCCCCCCC` (centres unmarked) [QAS 9]: the MIC in experiment [1] is 128 µg/mL and 176 µM; in experiment [2], 2050 µg/mL and 2820 µM; in experiment [3] (setting [4]), 64 µg/mL; in experiment [3] (setting [5]), 64 µg/mL and 88 µM; in experiment [3] (setting [6]), 64 µg/mL and 88 µM; in experiment [3] (setting [7]) it was 64 µg/mL and 88 µM. The MIC is 128 µg/mL and 176 µM in experiment [3] (setting [8]); 64 µg/mL and 88 µM in experiment [3] (setting [9]); 64 µg/mL and 88 µM in experiment [3] (setting [10]); 64 µg/mL and 88 µM in experiment [3] (setting [11]); 64 µg/mL and 88 µM in experiment [3] (setting [12]); 64 µg/mL and 88 µM in experiment [3] (setting [13]). Moreover, the MIC in experiment [3] (setting [14]) was 64 µg/mL and 88 µM; in experiment [3] (setting [15]), 64 µg/mL and 88 µM; in experiment [3] (setting [16]) it was 64 µg/mL and 88 µM; in experiment [3] (setting [17]), 64 µg/mL and 88 µM; in experiment [3] (setting [18]), 64 µg/mL and 88 µM; in experiment [3] (setting [19]), 64 µg/mL and 88 µM. For the same compound, the MIC in experiment [3] (setting [20]) is 64 µg/mL and 88 µM; in experiment [3] (setting [21]) it was 64 µg/mL and 88 µM; in experiment [3] (setting [22]), 64 µg/mL and 88 µM; in experiment [3] (setting [23]) it was 64 µg/mL and 88 µM; in experiment [3] (setting [24]) it was 64 µg/mL and 88 µM.
For `CCCCCCCCCC[N+](C)(C)C1COC2C1OCC2[N+](C)(C)CCCCCCCCCC` [QAS 10, N,N’-(1,4:3,6-Dianhydro-2,5-dideoxy-L-iditol-2,5-diyl)-bis(N,N-dimethyl-N-decylammonium) Ditrifluoromethanesulfonate], the MIC is 8 µg/mL and 10 µM in experiment [1]; 32 µg/mL and 40 µM in experiment [2]; 8 µg/mL in experiment [3] (setting [4]); 8 µg/mL and 10 µM in experiment [3] (setting [5]); 8 µg/mL and 10 µM in experiment [3] (setting [6]); 4 µg/mL and 5 µM in experiment [3] (setting [7]). Moreover, the MIC is 8 µg/mL and 10 µM in experiment [3] (setting [8]); 8 µg/mL and 10 µM in experiment [3] (setting [9]); 8 µg/mL and 10 µM in experiment [3] (setting [10]); 4 µg/mL and 5 µM in experiment [3] (setting [11]); 8 µg/mL and 10 µM in experiment [3] (setting [12]); 8 µg/mL and 10 µM in experiment [3] (setting [13]). Besides, the MIC in experiment [3] (setting [14]) is 8 µg/mL and 10 µM; in experiment [3] (setting [15]), 8 µg/mL and 10 µM; in experiment [3] (setting [16]) it was 8 µg/mL and 10 µM; in experiment [3] (setting [17]) it was 8 µg/mL and 10 µM; in experiment [3] (setting [18]), 4 µg/mL and 5 µM; in experiment [3] (setting [19]) it was 8 µg/mL and 10 µM. For the same compound, the MIC in experiment [3] (setting [20]) is 8 µg/mL and 10 µM; in experiment [3] (setting [21]) it was 8 µg/mL and 10 µM; in experiment [3] (setting [22]), 8 µg/mL and 10 µM; in experiment [3] (setting [23]) it was 8 µg/mL and 10 µM; in experiment [3] (setting [24]), 8 µg/mL and 10 µM; in experiment [3] (more susceptible strains among 20 isolates, read-out: MIC of more susceptible S. aureus clinical strains), 4 µg/mL.
